From patent US20240208979A1, “sGC STIMULATORS” (Tisento Therapeutics Inc., priority 2021, published 2024)

Assays:
human α2β1 sGC isozyme = molecular target: T1, human α2β1 sGC isozyme (Homo sapiens, UniProt P33402+Q02153); assay: cGMP assay on human α2β1 sGC isozyme stably expressed in CHO-K1 cells; type: cell-based; settings: 10 μM DETA-NONOate, 20 min, cGMP content, geometrical mean
T1 construct: host or cells: CHO-K1
T1 sequence (P33402 1-732): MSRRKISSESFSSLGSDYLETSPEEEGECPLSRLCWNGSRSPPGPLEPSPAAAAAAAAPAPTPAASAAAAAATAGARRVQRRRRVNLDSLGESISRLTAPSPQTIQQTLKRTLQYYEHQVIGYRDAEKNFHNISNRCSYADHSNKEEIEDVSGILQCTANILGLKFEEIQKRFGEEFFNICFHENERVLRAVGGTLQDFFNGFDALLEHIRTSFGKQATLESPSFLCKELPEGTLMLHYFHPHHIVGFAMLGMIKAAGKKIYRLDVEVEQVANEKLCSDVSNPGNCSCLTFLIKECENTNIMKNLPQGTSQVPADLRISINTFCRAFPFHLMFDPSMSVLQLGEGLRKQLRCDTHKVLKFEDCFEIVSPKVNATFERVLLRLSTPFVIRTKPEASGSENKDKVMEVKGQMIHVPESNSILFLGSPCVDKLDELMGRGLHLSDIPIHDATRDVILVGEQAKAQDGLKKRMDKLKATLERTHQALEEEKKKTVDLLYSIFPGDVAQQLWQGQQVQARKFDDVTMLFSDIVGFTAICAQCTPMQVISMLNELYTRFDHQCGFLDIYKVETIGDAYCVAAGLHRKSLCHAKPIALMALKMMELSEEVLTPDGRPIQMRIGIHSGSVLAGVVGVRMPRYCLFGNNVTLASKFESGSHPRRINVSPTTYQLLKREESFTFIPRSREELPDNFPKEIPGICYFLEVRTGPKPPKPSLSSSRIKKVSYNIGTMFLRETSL
T1 sequence (Q02153 1-619): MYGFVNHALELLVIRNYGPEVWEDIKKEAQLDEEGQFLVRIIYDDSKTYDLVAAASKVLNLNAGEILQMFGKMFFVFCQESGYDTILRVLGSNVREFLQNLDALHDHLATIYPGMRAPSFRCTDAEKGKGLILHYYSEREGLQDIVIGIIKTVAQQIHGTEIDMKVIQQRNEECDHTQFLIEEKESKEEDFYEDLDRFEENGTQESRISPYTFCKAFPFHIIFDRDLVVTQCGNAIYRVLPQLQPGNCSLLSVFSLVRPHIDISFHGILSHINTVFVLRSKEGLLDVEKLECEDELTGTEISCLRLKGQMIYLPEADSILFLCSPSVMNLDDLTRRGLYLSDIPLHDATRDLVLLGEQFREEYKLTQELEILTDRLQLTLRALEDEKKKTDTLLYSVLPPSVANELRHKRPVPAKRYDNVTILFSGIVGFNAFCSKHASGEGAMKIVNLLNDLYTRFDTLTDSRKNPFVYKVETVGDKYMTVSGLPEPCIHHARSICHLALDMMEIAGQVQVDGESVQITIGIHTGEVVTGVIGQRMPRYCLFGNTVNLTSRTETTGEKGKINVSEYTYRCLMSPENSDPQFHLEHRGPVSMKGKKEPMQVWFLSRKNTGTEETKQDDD
Protocol: sGC stimulators were dissolved in DMSO as a 10 mM solution and stored at −20° C. To achieve desired test concentrations, stock concentrations were serially diluted into DMSO and then diluted to the appropriate concentration in assay buffer.
CHO-K1 cells stably transfected with human α2β1 sGC isozyme (generated by GenScript for Ironwood) were cultured in F-12K medium (ATCC catalog #30-2004) with 10% fetal calf serum, 4 μg/mL puromycin (Gibco catalog #A11138-03) and 0.4 mg/mL of geneticin (Gibco catalog #10131-027) in a 95% humidified atmosphere containing 5% CO2 in air at 37° C. For GC activity assays, cells were seeded in 384 well poly-D-lysine coated flat bottom plates (Fisher Scientific #08-774-311) in either 50 μL or 70 μL medium at a density of either 3×10^4 cells/well or 15×10^3, respectively. Cells were incubated for 24 hours at 37° C. in a humidified chamber supplemented with 5% CO2. […]
Following incubation with compound, assay buffer was removed and 50 μL of ice-cold 10% acetic acid+150 ng/mL internal standard (+3 cGMP) was added to each well. […] Following centrifugation at 4° C. for 5 min at 1000×g to pellet cell debris, the supernatant was transferred to a clean plate and the samples analyzed for cGMP content.
Data were analyzed with a 4-parameter fit (log(agonist) vs. response—variable slope) using GraphPad Prism Software v.8. […]

normotensive rats = assay: Blood pressure effects in normotensive rats following acute oral dose; type: in vivo, rat; settings: Milli-Q water
Protocol: Male, normotensive Sprague Dawley rats were purchased from Charles River Laboratories. These rats have indwelling femoral artery catheters installed. Animals were harnessed to a tether system and attached to pressure transducers to monitor cardiovascular (CV) parameters, specifically mean arterial pressure (MAP) and heart rate (HR). Animals were acclimated to the system overnight and baseline CV parameters collected. The conscious, freely moving rats were then administered a single oral dose of the Compound I-14 (doses generated from the sodium salt of Compound 14) in Milli-Q water at 1, 3, 10 and 30 mg/kg. A blood sample was collected from each animal through the catheter line at pre-dose and 2 hours post-dose for compound concentration quantification. Hemodynamic measures were recorded for ten hours post-dose. […]
ADInstruments LabChart (v8) was used to monitor and export hemodynamic data. Blood pressure and heart rate were continuously monitored, and data were collected at 1000 data points per second then averaged into 10-minute bins for analysis. Change from baseline MAP (ΔBMAP) and HR (ΔBHR) were calculated using the pre-dose baseline averaged over the 1-hr period prior to dosing using Microsoft Excel for Microsoft 365. […]
Statistical analyses were performed in Graphpad Prism (v8). […] Vehicle-adjusted HR (ΔVHR) was calculated in a similar manner to ΔVMAP. […]

EC50 (human α2β1 sGC isozyme): ≤ 100 nM
Structure (SMILES): Cc1cc(F)c(Cc2nc(-c3ncc(F)c(O)n3)cn3ccnc23)cc1F [Compound I-14, 5-fluoro-2-(8-(2,5-difluoro-4-methylbenzyl)imidazo[1,2-a]pyrazin-6-yl)pyrimidin-4-ol]
effect on MAP from baseline and as adjusted from vehicle (normotensive rats; 3, 10, and 30 mg/kg single oral dose): lowered MAP | change from baseline MAP (ΔBMAP) compared with vehicle-treated rats (normotensive rats; single oral dose 1, 3, 10 and 30 mg/kg, 2-way ANOVA significant): greater decrease in MAP
